Molecules are shown by their SMILES. pEC50: −log10 of the molar value.

This experiment concerns the target T1, human mGluR2 (Homo sapiens, UniProt Q14416).
T1 construct: expressed in transfected cells; host or cells: CHO cells, stably transfected; membrane preparation
In words: [35S]-GTPγS binding assay of mGluR2 receptor activation (allosteric activator activity) with CHO cell membranes. It counts as biochemical. To be noted: membranes from CHO cells stably expressing human mGluR2; in presence of 1 μM glutamate. The protocol:
A [^35S]-GTPγS binding assay was used to functionally assay mGluR2 receptor activation. The allosteric activator activity of compounds at the human mGluR2 receptor were measured using a [^35S]-GTPγS binding assay with membranes prepared from CHO cells which stably express the human mGluR2. The assay is based upon the principle that agonists bind to G-protein coupled receptors to stimulate GDP-GTP exchange at the G-protein. Since [^35S]-GTPγS is a non-hydrolyzable GTP analog, it can be used to provide an index of GDP-GTP exchange and, thus, receptor activation. The GTPγS binding assay therefore provides a quantitative measure of receptor activation.
Membranes were prepared from CHO cells stably transfected with human mGluR2. Membranes (30 μg protein) were incubated with test compound (3 nM to 300 μM) for 15 minutes at room temperature prior to the addition of 1 μM glutamate, and incubated for 30 min at 30° C. in 500 μl assay buffer (20 mM HEPES, 100 mM NaCl, 10 mM MgCl2), containing 30 μM GDP and 0.1 nM [^35S]-GTPγS (1250 Ci/mmol). Reactions were carried out in triplicate in 2 ml polypropylene 96-well plates. Reactions were terminated by vacuum filtration using a Packard 96-well harvester and Unifilter-96, GF/B filter microplates. The filter plates were washed 4×1.5 ml with ice-cold wash buffer (10 mM sodium phosphate buffer, pH 7.4). The filter plates were dried and 35 μl of scintillation fluid (Microscint 20) was added to each well. The amount of radioactivity bound was determined by counting plates on the Packard TopCount. Data was analyzed using GraphPad Prism, and EC50 and Emax values (relative to the maximum glutamate effect) were calculated using non-linear regression.

T1 sequence (Q14416 19-872): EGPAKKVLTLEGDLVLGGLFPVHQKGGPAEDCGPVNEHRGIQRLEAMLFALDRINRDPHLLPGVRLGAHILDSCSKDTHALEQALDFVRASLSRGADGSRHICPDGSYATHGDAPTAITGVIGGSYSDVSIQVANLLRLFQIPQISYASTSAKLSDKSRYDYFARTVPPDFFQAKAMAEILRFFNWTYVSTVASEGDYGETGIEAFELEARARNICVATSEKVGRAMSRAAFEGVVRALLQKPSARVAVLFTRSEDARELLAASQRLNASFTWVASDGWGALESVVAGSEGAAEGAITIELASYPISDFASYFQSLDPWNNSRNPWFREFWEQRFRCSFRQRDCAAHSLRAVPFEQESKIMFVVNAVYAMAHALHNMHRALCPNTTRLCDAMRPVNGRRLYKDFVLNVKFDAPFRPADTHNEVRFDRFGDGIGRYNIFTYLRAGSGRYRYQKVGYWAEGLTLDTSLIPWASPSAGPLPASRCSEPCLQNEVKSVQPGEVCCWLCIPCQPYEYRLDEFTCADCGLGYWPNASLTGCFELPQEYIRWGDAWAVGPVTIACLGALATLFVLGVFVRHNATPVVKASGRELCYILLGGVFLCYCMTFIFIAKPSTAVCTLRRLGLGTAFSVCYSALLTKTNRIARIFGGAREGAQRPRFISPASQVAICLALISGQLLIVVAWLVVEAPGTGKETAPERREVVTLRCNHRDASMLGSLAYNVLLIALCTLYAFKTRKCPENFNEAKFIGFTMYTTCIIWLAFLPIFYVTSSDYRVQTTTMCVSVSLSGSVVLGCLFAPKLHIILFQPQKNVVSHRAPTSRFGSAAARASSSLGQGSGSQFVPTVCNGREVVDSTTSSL

Turning to `CN(C)CCNC(=O)c1cccc(-c2ccc(C3CN(Cc4ccc(Cl)cc4)C(=O)O3)cc2)c1` (centres unmarked) [Example 17.3, 4′-[3-(4-Chloro-benzyl)-2-oxo-oxa-zolidin-5-yl]-biphenyl-3-carboxylic acid(2-dimethylamino-ethyl)-amide], the negative logarithm of the EC50 (pEC50) is 5.51.

As to `COc1cncc(-c2ccc(C3CN(Cc4ccc(OC(F)(F)F)cc4)C(=O)O3)cc2)c1` (centres unmarked) [Example 17.2, 5-[4-(5-Methoxy-pyridin-3-yl)-phenyl]-3-(4-trifluoromethoxy-benzyl)-oxa-zolidin-2-one], the pEC50 was 6.04.

On to `O=C1OC(c2ccc(F)cc2)CN1Cc1ccc(Oc2ccccc2)cc1` (centres unmarked) [Example 13.5, 5-(4-Fluoro-phenyl)-3-(4-phenoxy-benzyl)-oxazolidin-2-one], for which the pEC50 was 6.41.

Consider `O=C(NC1CCN(Cc2ccccc2)C1)c1ccc(-c2ccc(CN3C[C@@H](c4ccccc4)OC3=O)cc2)cc1` (stereo in doubt) [Example 10.29, 4′-(2-Oxo-5-(R)-phenyl-oxazolidin-3-ylmethyl)-biphenyl-4-carboxylicacid (1-benzyl-pyrrolidin-3-(S)-yl)-amide], for which the pEC50 is 6.92.

For `O=C1O[C@H](c2ccccc2)CN1Cc1ccc(OC(F)(F)F)cc1` [Example 3.1, 5-(R)-Phenyl-3-(4-trifluoromethoxy-benzyl)-oxazolidin-2-one], the pEC50 was 5.71.
